{"source": "patent US20150119352A1", "about": "“DINUCELOSIDE POLYPHOSPHATES FOR THE TREATMENT OF PAIN” (GlobalAcorn Ltd., priority 2012, published 2015)", "key": {"[1]": {"biological_target": "T1, rat homomeric P2X2 receptors (Rattus norvegicus, UniProt P49653)", "T1 construct": "expressed in transfected cells; host or cells: HEK 293", "T1 sequence (P49653 1-472)": "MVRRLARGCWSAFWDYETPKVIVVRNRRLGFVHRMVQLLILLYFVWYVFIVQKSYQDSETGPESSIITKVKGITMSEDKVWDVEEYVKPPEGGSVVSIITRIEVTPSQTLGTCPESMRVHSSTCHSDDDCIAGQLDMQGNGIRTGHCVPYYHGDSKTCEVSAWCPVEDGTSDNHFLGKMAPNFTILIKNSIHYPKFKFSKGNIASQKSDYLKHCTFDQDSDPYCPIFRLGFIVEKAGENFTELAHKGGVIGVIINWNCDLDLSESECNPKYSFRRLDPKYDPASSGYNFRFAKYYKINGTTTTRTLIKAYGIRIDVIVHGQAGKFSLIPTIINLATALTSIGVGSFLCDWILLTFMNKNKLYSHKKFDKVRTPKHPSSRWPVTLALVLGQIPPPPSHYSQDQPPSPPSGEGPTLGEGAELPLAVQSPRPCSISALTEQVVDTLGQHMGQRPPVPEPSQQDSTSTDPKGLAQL", "experiment": "Whole-cell patch clamp on HEK cells expressing rat homomeric P2X2 receptors", "format": "cell-based", "conditions": "1 μM; 10 μM ATP", "experimental": "FIG. 4. […] A. Example traces of responses induced by 10 μM ATP applied for 2 s every 2 min to HEK cells expressing rat homomeric P2X2 receptors in the presence and absence of 1 μM AppNHppA. B. Comparison of currents induced by the full agonist of P2X2 receptors, ATP, in the presence of 1 μM AppNHppA (right) and absence (left). C. The time course of the current in the presence and absence of 1 μM AppNHppA. D. Comparison of currents induced by the full agonist of rat homomeric P2X4 and P2X7 receptors, ATP, in the presence of 1 μM AppNHppA (right) and absence (left). Experiments were performed as in FIG. 2.\n(§1) Trigeminal, nodose, DRG neurons or HEK cells were recorded in the whole-cell configuration while being continuously superfused (at 2 mL/min) with control solution containing (in mM): 152 NaCl, 5 KCl, 1 MgCl2, 2 CaCl2, 10 glucose, and 10 HEPES; pH was adjusted to 7.4 with NaOH and osmolarity was adjusted to 320 mOsM with glucose. […] Responses to selective P2X3 receptor agonist α,β-methylene-ATP (α,β-meATP; resistant to ectoATPase hydrolysis, Sigma-Aldrich) were measured using an EPC-9 amplifier and HEKA Patch Master software (HEKA Electronik, Germany). Cells were voltage-clamped at −70 mV. In most cells, series resistance was compensated by 80%. […]"}, "[2]": {"biological_target": "T2, native P2X3 receptors, trigeminal ganglia (TG) neurons (Rattus norvegicus, UniProt P49654)", "T2 construct": "Modulation of Native P2X3 Receptors in Rat Cultured Sensory Neurons; endogenous in cells; host or cells: primary cultured rat trigeminal ganglion and dorsal root ganglion neurons", "T2 sequence (P49654 1-397)": "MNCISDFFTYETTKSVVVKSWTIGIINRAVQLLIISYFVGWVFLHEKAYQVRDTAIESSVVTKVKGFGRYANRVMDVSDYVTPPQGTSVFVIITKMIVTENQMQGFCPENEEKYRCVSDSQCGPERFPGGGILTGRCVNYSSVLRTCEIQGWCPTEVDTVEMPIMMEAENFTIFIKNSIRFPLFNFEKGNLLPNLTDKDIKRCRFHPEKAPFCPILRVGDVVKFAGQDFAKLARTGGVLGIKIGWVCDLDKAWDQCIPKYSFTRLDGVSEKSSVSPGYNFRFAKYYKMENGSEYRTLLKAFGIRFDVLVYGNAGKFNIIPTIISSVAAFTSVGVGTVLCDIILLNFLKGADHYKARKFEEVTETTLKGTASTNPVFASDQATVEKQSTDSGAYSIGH", "experiment": "α,β-meATP-induced currents in cultured trigeminal ganglia neurons", "format": "cell-based", "conditions": "read-out: inhibition (suppression) of the peak current", "experimental": "(§2) Rat trigeminal (TG), nodose (NG) or dorsal root ganglion (DRG) neurons in culture were prepared as described previously (Sokolova et al., 2001; Simonetti et al., 2006). Neurons were plated on poly-L-lysine (0.2 mg/mL)-coated Petri dishes and cultured for 1 to 2 days under an atmosphere containing 5% CO2. Cells were used within 2 days of plating when they lacked processes. HEK293T cells were prepared as reported previously (Fabbretti et al., 2004; Sokolova et al., 2004) and transfected with rat full-length P2X3 cDNA subcloned into pIRES2-EGFP (Clontech, Mountain View, Calif., USA).\nas §1\n(§3) The peak amplitudes of the responses were measured using HEKA Patch Master software. […]"}, "[3]": {"system": "native P2X3 receptors, nodose ganglia (NG) neurons", "experiment": "α,β-meATP-induced currents in cultured nodose ganglia neurons", "format": "cell-based, rat", "conditions": "1 μM", "experimental": "as §2, §1, §3"}}, "note": "Entries after “also recorded” stand apart in the source; their conditions may differ.", "data": [{"molecule": "Nc1ncnc2c1ncn2[C@@H]1O[C@H](COP(=O)(O)OP(=O)(O)NP(=O)(O)OP(=O)(O)OC[C@H]2O[C@@H](n3cnc4c(N)ncnc43)C(O)C2O)C(O)C1O", "note": "(stereo in doubt) [AppNHppA]", "values": [{"measurement": "effect on P2X2 receptor-mediated currents", "setting": "[1]", "result": "not observed to produce any effects; also recorded: non-inhibitory effect"}, {"measurement": "inhibition at 1 µM", "setting": "[2]", "result": "80.3 ± 4.4", "unit": "%"}, {"measurement": "inhibition of sustained residual component", "setting": "[3]", "result": "2±4", "unit": "%"}, {"measurement": "inhibition (suppression) of the peak current", "setting": "[3]; 10 μM α,β-meATP", "result": "16.8±11.8", "unit": "%"}]}]}
